Laboratory results from US20230192700A1, “PYRAZOLOPYRAZINES ACTING ON CANCERS VIA INHIBITION OF CDK12” (Bayer Aktiengesellschaft, priority 2020, published 2023).
Read-outs that look alike come from different tables or passages of the source.

How the values were obtained:
Assay type in all cases: cell-based
[1] = system: CAL-120 human breast adenocarcinoma cells; experiment: Proliferation assay CAL-120 (crystal violet); conditions: CAL-120 cells, 4 days, median, read-out: Prolif-CAL-120— IC50 - [mol/l] (median)
Procedure: (§1) 4. Proliferation assay: MDA-MB-231, CAL-120
(§2) Human tumour cells were originally obtained from the American Type Culture Collection (ATCC), or from the Deutsche Sammlung von Mikroorganismen and Zellkulturen (DSMZ, German Collection of Microorganisms and Cell Cultures). Cultivated tumour cells (CAL-120, human breast adenocarcinoma cells, DSMZ ACC-459; MDA-M B-231, human breast cancer cells, ATCC HTB-26) were plated at a density of 4,000 cells/well in a 96-well multititer plate in 200 microL of their respective growth medium supplemented 10% fetal calf serum. After 24 hours, the cells of one plate (zero-point plate) were stained with crystal violet (see below), while the medium of the other plates was supplemented with the test substances in various concentrations (0 micromol/L, as well as in the range of 0.01-10 micromol/L; the final concentration of the solvent dimethyl sulfoxide was adjusted to 0.1%) using a Tecan HP D300 Digital Dispenser. The cells were incubated for 4 days in the presence of test substances. Cell proliferation was determined by staining the cells with crystal violet: the cells were fixed by adding 20 microL/measuring point of an 11% glutaric aldehyde solution for 15 minutes at room temperature. After three washing cycles of the fixed cells with water, the plates were dried at room temperature. The cells were stained by adding 100 microL/measuring point of a 0.1% crystal violet solution (pH 3.0). After three washing cycles of the stained cells with water, the plates were dried at room temperature. The dye was dissolved by adding 100 microL/measuring point of a 10% acetic acid solution. The extinction was determined by photometry at a wavelength of 595 nm. The change of cell number, in percent, was calculated by normalization of the measured values to the extinction values of the zero-point plate(=0%) and the extinction of the untreated (0 μM) cells(=100%). The IC50 values (inhibitory concentration at 50% of maximal effect) were determined by means of a 4 parameter fit.

[2] = system: MDA-MB-231 human breast cancer cells; experiment: Proliferation assay MDA-MB-231 (crystal violet); conditions: MDA-MB-231 cells, 4 days, median, read-out: Prolif-MDA MB231 IC50 - [mol/l] (median)
Procedure: as §1, §2

CYCLIN K = biological target: T1, CYCLIN K (Homo sapiens, UniProt O75909); experiment: CYCLIN K nuclear protein level: immunofluorescence/high content analysis in CAL-120 cells; conditions: 24 h, nuclear CCNK staining intensity, median, read-out: CYCLIN K degradation IF, DC50- [mol/l] (median)
T1 construct: endogenous in cells; host or cells: CAL-120 human breast cancer cells (DSMZ ACC 459)
Procedure: 7. CYCLIN K Nuclear Protein Level: Immunofluorescence/High Content Analysis
In the context of the present invention, the term “DC50 Cyclin K” refers to the DC50 values obtained according to the assay described in this section (7) herein below, i.e. the DC50 values for the degradation of Cyclin K.
CAL-120 human breast cancer cells (DSMZ ACC 459) are seeded in 1536-well microtiter plates (800 cells per well) containing 50 nanoL of compounds in Dose-Response. Control wells received DMSO or Reference Example 1. Plates are then incubated for 24 h at 37° C. in an humidified incubator and fixed with 4% PFA for 10 min. Then immunofluorescence (IF) against CYCLIN K (ThermoFisher Scientific CCNK Antibody # PA5-85020, rabbit, 1:200 dilution) is performed using standard IF protocols. Cells are then stained with Hoechst 33342 (Life Technologies, H-1399, 0.1 microg/mL) and imaged on an automated confocal microscopy system (e.g. Perkin Elmer Opera Phenix). Nuclear and cytoplasmic intensity as well as the nuclear/cytoplasmic intensity ratio is determined by automated image analysis using custom generated scripts (MetaXpress). Data is then transferred to Genedata Screener software, normalized to DMSO and control and DC50 values (degrading concentration to achieve 50% reduction of nuclear CCNK staining intensity relative to controls) are reported.

T1 sequence (O75909 whole entry): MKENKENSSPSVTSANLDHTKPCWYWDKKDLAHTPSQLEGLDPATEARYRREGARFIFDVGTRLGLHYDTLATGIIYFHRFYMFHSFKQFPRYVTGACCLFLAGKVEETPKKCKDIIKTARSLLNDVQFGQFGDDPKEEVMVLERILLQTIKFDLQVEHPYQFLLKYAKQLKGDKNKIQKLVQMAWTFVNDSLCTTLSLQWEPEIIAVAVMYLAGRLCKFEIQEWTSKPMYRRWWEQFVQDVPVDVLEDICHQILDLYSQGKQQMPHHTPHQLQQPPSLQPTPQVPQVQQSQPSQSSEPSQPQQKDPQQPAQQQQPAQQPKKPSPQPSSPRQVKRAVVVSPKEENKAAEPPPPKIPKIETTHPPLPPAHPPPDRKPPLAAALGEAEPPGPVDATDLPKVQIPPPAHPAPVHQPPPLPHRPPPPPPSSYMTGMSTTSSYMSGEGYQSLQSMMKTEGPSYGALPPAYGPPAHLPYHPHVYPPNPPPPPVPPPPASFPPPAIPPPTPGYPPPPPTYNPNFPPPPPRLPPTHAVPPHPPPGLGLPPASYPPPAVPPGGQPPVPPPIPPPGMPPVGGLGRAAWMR
T1 sequence (Q9NYV4 whole entry partner): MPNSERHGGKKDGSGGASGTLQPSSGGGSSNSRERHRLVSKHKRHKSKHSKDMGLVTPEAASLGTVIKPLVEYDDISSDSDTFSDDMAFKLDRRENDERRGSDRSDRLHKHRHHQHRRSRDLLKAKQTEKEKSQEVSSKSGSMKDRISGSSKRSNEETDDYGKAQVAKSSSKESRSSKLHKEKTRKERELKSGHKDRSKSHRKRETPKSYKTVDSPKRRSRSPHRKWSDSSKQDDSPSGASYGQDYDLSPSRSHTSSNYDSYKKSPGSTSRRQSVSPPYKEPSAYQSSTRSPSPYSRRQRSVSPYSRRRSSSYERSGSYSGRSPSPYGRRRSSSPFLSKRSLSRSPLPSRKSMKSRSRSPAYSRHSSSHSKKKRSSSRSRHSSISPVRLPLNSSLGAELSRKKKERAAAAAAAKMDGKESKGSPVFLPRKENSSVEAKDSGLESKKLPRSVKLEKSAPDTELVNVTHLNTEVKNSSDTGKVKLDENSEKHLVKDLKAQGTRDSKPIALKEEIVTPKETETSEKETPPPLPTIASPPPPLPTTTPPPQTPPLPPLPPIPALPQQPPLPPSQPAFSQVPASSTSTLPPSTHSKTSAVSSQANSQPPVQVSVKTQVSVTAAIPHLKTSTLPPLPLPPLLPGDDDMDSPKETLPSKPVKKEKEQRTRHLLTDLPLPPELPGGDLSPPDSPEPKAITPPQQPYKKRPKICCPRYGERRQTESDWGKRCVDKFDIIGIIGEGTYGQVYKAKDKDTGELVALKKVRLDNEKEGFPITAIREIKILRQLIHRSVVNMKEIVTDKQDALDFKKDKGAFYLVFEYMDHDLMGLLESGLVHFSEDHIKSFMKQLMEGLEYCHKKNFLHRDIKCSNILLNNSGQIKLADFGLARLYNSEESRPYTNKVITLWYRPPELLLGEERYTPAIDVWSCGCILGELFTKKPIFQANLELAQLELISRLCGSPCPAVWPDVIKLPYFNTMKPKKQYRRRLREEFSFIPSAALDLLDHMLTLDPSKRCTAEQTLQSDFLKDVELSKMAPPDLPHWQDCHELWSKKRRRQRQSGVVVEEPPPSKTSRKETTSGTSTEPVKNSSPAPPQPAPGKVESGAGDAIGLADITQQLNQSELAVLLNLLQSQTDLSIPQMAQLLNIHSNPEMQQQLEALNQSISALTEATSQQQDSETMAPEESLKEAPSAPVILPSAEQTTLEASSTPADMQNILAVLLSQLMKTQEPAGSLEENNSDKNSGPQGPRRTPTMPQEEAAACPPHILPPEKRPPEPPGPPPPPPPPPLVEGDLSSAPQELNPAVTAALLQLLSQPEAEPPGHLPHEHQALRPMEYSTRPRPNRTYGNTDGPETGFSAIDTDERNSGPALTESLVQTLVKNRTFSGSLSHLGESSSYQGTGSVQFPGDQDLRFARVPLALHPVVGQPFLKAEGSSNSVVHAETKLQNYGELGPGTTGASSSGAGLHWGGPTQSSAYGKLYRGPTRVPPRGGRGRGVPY

Compound | IC50 ([1]; Homo sapiens, CAL-120, 96 h) [nM] | IC50 ([2]; Homo sapiens, MDA-MB-231, 96 h) [nM] | DC50 (CYCLIN K) [nM] | IC50 [1] [nM] | IC50 [2] [nM]
c1ccc2[nH]c(CNc3nn(C4C[C@H]5CC[C@@H](C4)O5)c4nc(C5CC5)cnc34)nc2c1 (stereo partly drawn) [Example 45, exo/endo-N-[(1H-benzimidazol-2-yl)methyl]-6-cyclopropyl-1-(8-oxabicyclo[3.2.1]octan-3-yl)-1H-pyrazolo[3,4-b]pyrazin-3-amine] | 9.86 | 16.8 | 2.29 | – | –
O[C@H]1CC[C@H](n2nc(NCc3nc4ccccc4[nH]3)c3ncc(C4CC4)nc32)CC1 [Example 50, trans-4-(3-{[(1H-benzimidazol-2-yl)methyl]amino}-6-cyclopropyl-1H-pyrazolo[3,4-b]pyrazin-1-yl)cyclohexan-1-ol] | 11 | 15 | 3.27 | – | –
Fc1ccc2[nH]c(CNc3nn(C4CCOCC4)c4nc(C5CC5)cnc34)nc2c1 [Example 53, 6-cyclopropyl-N-[(5-fluoro-1H-benzimidazol-2-yl)methyl]-1-(oxan-4-yl)-1H-pyrazolo[3,4-b]pyrazin-3-amine] | 19.7 | 23.3 | 6.41 | – | –
CN1CCC(n2nc(NCc3nc4cc(C(F)(F)F)ccc4[nH]3)c3ncc(C4CC4)nc32)CC1 [Example 25, 6-cyclopropyl-1-(1-methylpiperidin-4-yl)-N-{[5-(trifluoromethyl)-1H-benzimidazol-2-yl]methyl}-1H-pyrazolo[3,4-b]pyrazin-3-amine] | 3.14 | 5.07 | 0.543 | – | –
O[C@H]1C[C@@H](Cn2nc(NCc3nc4ccccc4[nH]3)c3ncc(C4CC4)nc32)C1 [Example 71, cis-3-[(3-{[(1H-benzimidazol-2-yl)methyl]amino}-6-cyclopropyl-1H-pyrazolo[3,4-b]pyrazin-1-yl)methyl]cyclobutan-1-ol] | 52.4 | 70.8 | 8.83 | – | –
OC1(Cn2nc(NCc3nc4ccccc4[nH]3)c3ncc(C4CC4)nc32)CCCC1 [Example 73, 1-[(3-{[(1H-benzimidazol-2-yl)methyl]amino}-6-cyclopropyl-1H-pyrazolo[3,4-b]pyrazin-1-yl)methyl]cyclopentan-1-ol] | 110 | 141 | 53.2 | – | –
COc1cccc2[nH]c(CNc3nn(C4CCN(C)CC4)c4nc(C5CC5)cnc34)nc12 [Example 2, 6-cyclopropyl-N-[(4-methoxy-1H-benzimidazol-2-yl)methyl]-1-(1-methylpiperidin-4-yl)-1H-pyrazolo[3,4-b]pyrazin-3-amine] | 11 | 10.8 | 0.704 | – | –
CN1CCC(n2nc(NCc3nc4c(C(F)(F)F)cccc4[nH]3)c3ncc(C4CC4)nc32)CC1 [Example 7, 6-cyclopropyl-1-(1-methylpiperidin-4-yl)-N-{[4-(trifluoromethyl)-1H-benzimidazol-2-yl]methyl}-1H-pyrazolo[3,4-b]pyrazin-3-amine] | 10.5 | 39.1 | 2.62 | – | –
O[C@H]1C[C@H](Cn2nc(NCc3nc4ccccc4[nH]3)c3ncc(C4CC4)nc32)C1 [Example 70, trans-3-[(3-{[(1H-benzimidazol-2-yl)methyl]amino}-6-cyclopropyl-1H-pyrazolo[3,4-b]pyrazin-1-yl)methyl]cyclobutan-1-ol] | 71.8 | 174 | 11.6 | – | –
CC(C)(O)CCn1nc(NCc2nc3ccccc3[nH]2)c2ncc(C3CC3)nc21 [Example 76, 4-(3-{[(1H-benzimidazol-2-yl)methyl]amino}-6-cyclopropyl-1H-pyrazolo[3,4-b]pyrazin-1-yl)-2-methylbutan-2-ol] | 55.7 | 124 | 8.11 | – | –
OCC1(Cn2nc(NCc3nc4ccccc4[nH]3)c3ncc(C4CC4)nc32)CCC1 [Example 74, {1-[(3-{[(1H-benzimidazol-2-yl)methyl]amino}-6-cyclopropyl-1H-pyrazolo[3,4-b]pyrazin-1-yl)methyl]cyclobutyl}methanol] | 46.7 | 251 | 13.6 | – | –
COCCC(C)n1nc(NCc2nc3ccccc3[nH]2)c2ncc(C3CC3)nc21 (single isomer, unassigned; (-)) [Example 58, (−)-N-[(1H-benzimidazol-2-yl)methyl]-6-cyclopropyl-1-[4-methoxybutan-2-yl]-1H-pyrazolo[3,4-b]pyrazin-3-amine] | – | – | 15.6 | 156 | 213
CN1CCC(n2nc(NCc3nc4c(F)cccc4[nH]3)c3ncc(C4CC4)nc32)CC1 [Example 3, 6-cyclopropyl-N-[(4-fluoro-1H-benzimidazol-2-yl)methyl]-1-(1-methylpiperidin-4-yl)-1H-pyrazolo[3,4-b]pyrazin-3-amine] | 3.3 | 3.73 | 1.15 | – | –
CC(C)(O)Cn1nc(NCc2nc3ccccc3[nH]2)c2ncc(C3CC3)nc21 [Example 69, 1-(3-{[(1H-benzimidazol-2-yl)methyl]amino}-6-cyclopropyl-1H-pyrazolo[3,4-b]pyrazin-1-yl)-2-methylpropan-2-ol] | 199 | 311 | 34.1 | – | –

Continued by falling DC50 (CYCLIN K), values first:

IC50 ([1]; Homo sapiens, CAL-120, 96 h) [nM] | IC50 ([2]; Homo sapiens, MDA-MB-231, 96 h) [nM] | DC50 (CYCLIN K) [nM] | IC50 [1] [nM] | IC50 [2] [nM] | Compound
268 | 376 | 124 | – | – | c1ccc2[nH]c(CNc3nn(CC4CCC4)c4nc(C5CC5)cnc34)nc2c1 [Example 75, N-[(1H-benzimidazol-2-yl)methyl]-1-(cyclobutylmethyl)-6-cyclopropyl-1H-pyrazolo[3,4-b]pyrazin-3-amine]
147 | 437 | 37.4 | – | – | COCCn1nc(NCc2nc3ccccc3[nH]2)c2ncc(C3CC3)nc21 [Example 65, N-[(1H-benzimidazol-2-yl)methyl]-6-cyclopropyl-1-(2-methoxyethyl)-1H-pyrazolo[3,4-b]pyrazin-3-amine]
23.5 | 37.9 | 13.5 | – | – | CC1CC(n2nc(NCc3nc4ccccc4[nH]3)c3ncc(C4CC4)nc32)CCO1 (racemic) [Example 44, (±)-cis/trans-N-[(1H-benzimidazol-2-yl)methyl]-6-cyclopropyl-1-(2-methyloxan-4-yl)-1H-pyrazolo[3,4-b]pyrazin-3-amine]
20.4 | 67.1 | 2.3 | – | – | CC1CC(n2nc(NCc3nc4ccccc4[nH]3)c3ncc(C4CC4)nc32)CCN1C (racemic) [Example 41, (±)-cis/trans-N-[(1H-benzimidazol-2-yl)methyl]-6-cyclopropyl-1-(1,2-dimethylpiperidin-4-yl)-1H-pyrazolo[3,4-b]pyrazin-3-amine]
10 | 12.4 | 1.22 | – | – | COc1cccc2[nH]c(CNc3nn(C4CCOCC4)c4nc(C5CC5)cnc34)nc12 [Example 24, 6-cyclopropyl-N-[(4-methoxy-1H-benzimidazol-2-yl)methyl]-1-(oxan-4-yl)-1H-pyrazolo[3,4-b]pyrazin-3-amine]
2.12 | 5.52 | 0.877 | – | – | Fc1ccc2[nH]c(CNc3nn(C4CCOCC4)c4nc(C5CC5)cnc34)nc2c1F [Example 32, 6-cyclopropyl-N-[(4,5-difluoro-1H-benzimidazol-2-yl)methyl]-1-(oxan-4-yl)-1H-pyrazolo[3,4-b]pyrazin-3-amine]
3.61 | 4.83 | 0.339 | – | – | CN1CCC(n2nc(NCc3nc4cc(Cl)c(Cl)cc4[nH]3)c3ncc(C4CC4)nc32)CC1 [Example 19, 6-cyclopropyl-N-[(5,6-dichloro-1H-benzimidazol-2-yl)methyl]-1-(1-methylpiperidin-4-yl)-1H-pyrazolo[3,4-b]pyrazin-3-amine]
